Experimental findings from ChEMBL document CHEMBL1130980, “Novel antiproliferative falcarindiol furanocoumarin ethers from the root of Angelica japonica” (1998) are described below.

This test is described as follows: Inhibitory activity in MTT assay against MK-I cell. The following applies: Homo sapiens, read-out: ED50 (the source's name). Format: functional.

Structures are written as SMILES. ≈ marks a conversion by molar mass, not a printed value.

With `C=C[C@H](O)C#CC#CC(/C=C\CCCCCCC)OC(C)=O` (some centres undefined), the EC50 is 3.2 µg/mL (≈ 10.6 µM).
To `C=CC(O)C#CC#CC(O)/C=C\C(O)CCCCCC` (centres undefined) belongs 2.2 µg/mL (≈ 7.96 µM); to `C=CC(O)C#CC#C[C@@H](O)/C=C\CCCCCCC` (single isomer, unassigned) [FALCARINDIOL], 3.2 µg/mL (≈ 12.3 µM).
The value for `C=C[C@H](O)C#CC#CC/C=C\CCCCCCC` [FALCARINOL] was 0.3 µg/mL (≈ 1.23 µM).
